Measured values published in patent US7704995B2 (Exelixis, Inc., priority 2003, dated 2010).

biological target: T1, Chk1 (Homo sapiens, UniProt O14757); assay: Chk1 kinase assay: incorporation of γ-33P ATP into immobilized myelin basic protein; format: biochemical; settings: Table 11; Chk1 only; read-out: Chk1 IC50
T1 construct: purchased Upstate Biotechnology
T1 sequence (O14757 1-476): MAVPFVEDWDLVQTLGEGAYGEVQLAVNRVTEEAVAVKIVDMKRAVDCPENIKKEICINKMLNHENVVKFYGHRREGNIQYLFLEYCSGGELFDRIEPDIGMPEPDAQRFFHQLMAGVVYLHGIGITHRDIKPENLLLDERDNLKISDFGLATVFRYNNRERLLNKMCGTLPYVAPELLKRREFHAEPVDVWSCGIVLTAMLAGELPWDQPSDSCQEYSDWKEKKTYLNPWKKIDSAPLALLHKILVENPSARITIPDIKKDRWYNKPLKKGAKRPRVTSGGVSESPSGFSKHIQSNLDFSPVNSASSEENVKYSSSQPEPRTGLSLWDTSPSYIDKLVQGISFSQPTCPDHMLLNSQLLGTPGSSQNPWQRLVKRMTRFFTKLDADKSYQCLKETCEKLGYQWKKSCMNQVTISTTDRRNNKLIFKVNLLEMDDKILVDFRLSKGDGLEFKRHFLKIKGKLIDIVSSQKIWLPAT
Method in brief: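 MBP coated on plates (20 μg/ml) was phosphorylated by Chk1 (10 nM) or Chk2 (20 nM) with γ-33P ATP plus 10 μM (Chk1) or 30 μM (Chk2) unlabeled ATP, 1 h at room temperature, 1% DMSO. Bound radioactivity was counted by scintillation after washing; IC50 or Ki derived from fitted rate data.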

IC50 [µM]	SMILES
≥ 10	Nc1ncc(-c2cccc(C(=O)NCc3ccccc3)c2)nc1CN1CCOCC1 [Example 694, 3-[5-amino-6-(morpholin-4-ylmethyl)pyrazin-2-yl]-N-(phenylmethyl)benzamide]
≥ 10	CCOC(=O)C1CCN(Cc2nc(-c3cccc(C(=O)NCc4ccccc4)c3)cnc2N)CC1 [Example 695, ethyl 1-{[3-amino-6-(3-{[(phenylmethyl)amino]carbonyl}phenyl)pyrazin-2-yl]methyl}piperidine-4-carboxylate]
0.05 to 1	Nc1ncc(-c2cccc(C(=O)NCc3ccccc3)c2)nc1C(=O)N[C@H]1CCN(Cc2ccccn2)C1 [Example 696, 3-amino-6-(3-{[(phenylmethyl)amino]carbonyl}phenyl)-N-[(3S)-1-(pyridin-2-ylmethyl)pyrrolidin-3-yl]pyrazine-2-carboxamide]
≥ 10	COC(=O)[C@@H](NC(=O)c1nc(-c2cccc(C(=O)NCc3ccccc3)c2)cnc1N)[C@@H](C)O [Example 697, methyl N-{[3-amino-6-(3-{[(phenylmethyl)amino]carbonyl}phenyl)pyrazin-2-yl]carbonyl}threoninate]
≥ 10	Nc1ncc(-c2cccc(CO)c2)nc1-c1nc(C2CCCCN2)n[nH]1 (centres unmarked) [Example 698, {3-[5-amino-6-(3-piperidin-2-yl-1H-1,2,4-triazol-5-yl)pyrazin-2-yl]phenyl}methanol]
≥ 10	CCNc1ncc(-c2cccc(C(=O)NCc3ccccc3)c2)nc1C(=O)N[C@H]1CCN(CC)C1 [Example 699, 3-(ethylamino)-N-[(3S)-1-ethylpyrrolidin-3-yl]-6-(3-{[(phenylmethyl)amino]carbonyl}phenyl)pyrazine-2-carboxamide]
0.05 to 1	CCN1CC[C@H](NC(=O)c2nc(-c3cccc(C(=O)NCc4ccccc4)c3)cnc2N)C1 [Example 700, 3-amino-N-[(3S)-1-ethylpyrrolidin-3-yl]-6-(3-{[(phenylmethyl)amino]carbonyl}phenyl)pyrazine-2-carboxamide]
≥ 10	Cn1nc(-c2nc(-c3cccc(C(=O)NCc4ccccc4)c3)cnc2N)nc1C1CCCCN1 (centres unmarked) [Example 701, 3-[5-amino-6-(1-methyl-5-piperidin-2-yl-1H-1,2,4-triazol-3-yl)pyrazin-2-yl]-N-(phenylmethyl)benzamide]
1 to 10	Cc1nc(-c2nc(-c3cccc(C(=O)NCc4ccccc4)c3)cnc2N)nn1-c1ccccn1 [Example 702, 3-[5-amino-6-(5-methyl-1-pyridin-2-yl-1H-1,2,4-triazol-3-yl)pyrazin-2-yl]-N-(phenylmethyl)benzamide]
0.05 to 1	Nc1ncc(-c2cccc(CO)c2)nc1-c1nc(C2CNCCO2)n[nH]1 (centres unmarked) [Example 703, {3-[5-amino-6-(3-morpholin-2-yl-1H-1,2,4-triazol-5-yl)pyrazin-2-yl]phenyl}methanol]
< 0.05	Nc1ncc(-c2cccc(CN[C@H]3CCc4ccccc43)c2)nc1-c1nc([C@H]2CCCNC2)n[nH]1 [Example 704, 5-(3-{[(1S)-2,3-dihydro-1H-inden-1-ylamino]methyl}phenyl)-3-{3-[(3S)-piperidin-3-yl]-1H-1,2,4-triazol-5-yl}pyrazin-2-amine]
< 0.05	Nc1ncc(-c2cccc(CN[C@H]3CCc4ccccc43)c2)nc1-c1nc([C@@H]2CCCNC2)n[nH]1 [Example 705, 5-(3-{[(1S)-2,3-dihydro-1H-inden-1-ylamino]methyl}phenyl)-3-{3-[(3R)-piperidin-3-yl]-1H-1,2,4-triazol-5-yl}pyrazin-2-amine]
0.05 to 1	CCN1CC[C@H](NC(=O)c2nc(-c3cccc(C(=O)N[C@H]4CCc5ccccc54)c3)cnc2N)C1 [Example 706, 3-amino-6-(3-{[(1S)-2,3-dihydro-1H-inden-1-ylamino]carbonyl}phenyl)-N-[(3S)-1-ethylpyrrolidin-3-yl]pyrazine-2-carboxamide]
≥ 10	CCNc1ncc(-c2cccc(C(=O)N[C@H]3CCc4ccccc43)c2)nc1C(=O)N[C@H]1CCN(CC)C1 [Example 707, 6-(3-{[(1S)-2,3-dihydro-1H-inden-1-ylamino]carbonyl}phenyl)-3-(ethylamino)-N-[(3S)-1-ethylpyrrolidin-3-yl]pyrazine-2-carboxamide]
0.05 to 1	Nc1ncc(-c2cccc(C(=O)N[C@H]3c4ccccc4C[C@H]3O)c2)nc1C(=O)N[C@H]1CCNC1 [Example 708, 3-amino-6-[3-({[(1S,2R)-2-hydroxy-2,3-dihydro-1H-inden-1-yl]amino}carbonyl)phenyl]-N-[(3S)-pyrrolidin-3-yl]pyrazine-2-carboxamide]
≥ 10	CC(C)(C)OC(=O)N1CC[C@H](NC(=O)c2nc(-c3cccc(C(=O)N[C@H]4CCc5ccccc54)c3)cnc2N)C1 [Example 709, 1,1-dimethylethyl (3S)-3-({[3-amino-6-(3-{[(1S)-2,3-dihydro-1H-inden-1-ylamino]carbonyl}phenyl)pyrazin-2-yl]carbonyl}amino)pyrrolidine-1-carboxylate]

Continued, compound first:

SMILES	IC50 [µM]
Nc1ncc(-c2cccc(C(=O)NCc3ccccc3)c2)nc1/C=N/O [Example 681, 3-{5-amino-6-[(E)-(hydroxyimino)methyl]pyrazin-2-yl}-N-(phenylmethyl)benzamide]	1 to 10
Nc1ncc(-c2cccc(CO)c2)nc1-c1nc(-c2ccccn2)n[nH]1 [Example 682, {3-[5-amino-6-(3-pyridin-2-yl-1H-1,2,4-triazol-5-yl)pyrazin-2-yl]phenyl}methanol]	1 to 10
Nc1ncc(-c2cccc(CN[C@@H]3CCc4ccccc43)c2)nc1-c1nc(C2CCCNC2)n[nH]1 (stereo partly drawn) [Example 683, 5-(3-{[(1R)-2,3-dihydro-1H-inden-1-ylamino]methyl}phenyl)-3-(3-piperidin-3-yl-1H-1,2,4-triazol-5-yl)pyrazin-2-amine]	< 0.05
CN(C)c1ccc(C(=O)NCCCNC(=O)c2nc(-c3cccc(C(=O)NCc4ccccc4)c3)cnc2N)cc1 [Example 684, 3-amino-N-[3-({[4-(dimethylamino)phenyl]carbonyl}amino)propyl]-6-(3-{[(phenylmethyl)amino]carbonyl}phenyl)pyrazine-2-carboxamide]	≥ 10
Nc1ncc(-c2cccc(CN[C@H]3CCc4ccccc43)c2)nc1C(=O)N[C@H]1CCNC1 [Example 685, 3-amino-6-(3-{[(1S)-2,3-dihydro-1H-inden-1-ylamino]methyl}phenyl)-N-[(3S)-pyrrolidin-3-yl]pyrazine-2-carboxamide]	< 0.05
CC(C)(C)OC(=O)N1CCC(N2CC[C@H](NC(=O)c3nc(-c4cccc(C(=O)NCc5ccccc5)c4)cnc3N)C2)CC1 [Example 686, 1,1-dimethylethyl 4-[(3S)-3-({[3-amino-6-(3-{[(phenylmethyl)amino]carbonyl}phenyl)pyrazin-2-yl]carbonyl}amino)pyrrolidin-1-yl]piperidine-1-carboxylate]	1 to 10
Nc1ncc(-c2cccc(C(=O)NCc3ccccc3)c2)nc1C(=O)N[C@H]1CCN(C2CCNCC2)C1 [Example 687, 3-amino-6-(3-{[(phenylmethyl)amino]carbonyl}phenyl)-N-[(3S)-1-piperidin-4-ylpyrrolidin-3-yl]pyrazine-2-carboxamide]	1 to 10
CC(C)(C)OC(=O)N1CCC[C@@H]1CN1CC[C@H](NC(=O)c2nc(-c3cccc(C(=O)NCc4ccccc4)c3)cnc2N)C1 [Example 688, 1,1-dimethylethyl (2R)-2-{[(3S)-3-({[3-amino-6-(3-{[(phenylmethyl)amino]carbonyl}phenyl)pyrazin-2-yl]carbonyl}amino)pyrrolidin-1-yl]methyl}pyrrolidine-1-carboxylate]	≥ 10
Nc1ncc(-c2cccc(C(=O)NCc3ccccc3)c2)nc1C(=O)N[C@H]1CCN(C[C@H]2CCCN2)C1 [Example 689, 3-amino-6-(3-{[(phenylmethyl)amino]carbonyl}phenyl)-N-{(3S)-1-[(2R)-pyrrolidin-2-ylmethyl]pyrrolidin-3-yl}pyrazine-2-carboxamide]	1 to 10
CN(C)c1ccc(CN2CC[C@H](NC(=O)c3nc(-c4cccc(C(=O)NCc5ccccc5)c4)cnc3N)C2)cc1 [Example 690, 3-amino-N-((3S)-1-{[4-(dimethylamino)phenyl]methyl}pyrrolidin-3-yl)-6-(3-{[(phenylmethyl)amino]carbonyl}phenyl)pyrazine-2-carboxamide]	1 to 10
CN(C)c1ccc(NC(=O)NCCNC(=O)c2nc(-c3cccc(C(=O)NCc4ccccc4)c3)cnc2N)cc1 [Example 691, 3-amino-N-{2-[({[4-(dimethylamino)phenyl]amino}carbonyl)amino]ethyl}-6-(3-{[(phenylmethyl)amino]carbonyl}phenyl)pyrazine-2-carboxamide]	≥ 10
CN(C)c1ccc(C(=O)NCCNC(=O)c2nc(-c3cccc(C(=O)NCc4ccccc4)c3)cnc2N)cc1 [Example 692, 3-amino-N-[2-({[4-(dimethylamino)phenyl]carbonyl}amino)ethyl]-6-(3-{[(phenylmethyl)amino]carbonyl}phenyl)pyrazine-2-carboxamide]	≥ 10
N=C(NNc1ccccn1)c1nc(-c2cccc(C(=O)NCc3ccccc3)c2)cnc1N [Example 693, 3-{5-amino-6-[imino(2-pyridin-2-ylhydrazino)methyl]pyrazin-2-yl}-N-(phenylmethyl)benzamide]	≥ 10
